The values below come from patent US12049474B2, “Nucleoside prodrugs and uses related thereto” (Emory University, priority 2019, dated 2024).

For one data set, the system named is HEK293 cells. The conditions noted are these: 50% cytotoxic concentration; italicized results: absence of human serum albumin.
The target of a further data set is CYP3A4 (Homo sapiens (Human), UniProt P08684). The experiment in a line: Fluorometric CYP450 enzyme inhibition assay, CYP3A4. Type of data set: biochemical. The conditions noted are these: human recombinant CYP3A4, BFC substrate; read-out: CYP450 IC50 3A4. The method, then:
(§1) The CYP450 inhibition assays utilized microsomes from insect cells expressing human recombinant individual cDNA-expressed CYP isoforms 3A4 and 2D6, as well as the fluorogenic probe that produces fluorescent metabolite. Standard inhibitors were co-incubated with fluorogenic substrates and their inhibitory potential (IC50) was determined. Assay conditions in terms of CYP450 protein concentration and time of incubation were standardized, enzyme kinetics parameters of each fluorescent probe substrate were estimated and IC50 values of inhibitors were determined and validated on different days to check reproducibility.
(§2) A 100 mM sodium phosphate buffer was prepared and adjusted to pH 7.4. In a separate falcon tube, a 2× enzyme/substrate (E/S) solution was prepared in phosphate buffer. The final concentration of CYP2D6 (CORNING®) and […] (AMMC) was 10 nM and 4 μM, and CYP3A4 (CORNING®) and 7-benzyloxy-4-(trifluoromethyl) coumarin (BFC) was 20 nM and 40 μM, respectively. In a separate falcon tube, a 2×NADPH regenerating system (NRS) was prepared in phosphate buffer. The final concentration for each component in the assay was as follows: • CYP2D6 assay: 0.008 mM NADPH, 3.3 mM glucose 6-phosphate, 0.4 U of glucose-6-phosphate dehydrogenase per mL
Both enzymatic assays were conducted in a 96-well microtiter plate (Black, CORNING® COSTAR®) with a final volume of 100 μL. Preparation of the plate began with the addition of 74 μL of the E/S in the first well, and 50 μL to all subsequent wells (from 2-11). […] A 1:3 serial dilution of the test compound was conducted by removing 25 μL from the first well and diluting it with the second and so forth until the tenth row. Final concentrations yielded a range from 200 μM-0.01 μM. Well no. 11 contained no inhibitor, and well no. 12 contained no enzyme. Both were used as controls for background fluorescence. The plate was incubated for 30 min at 37° C. After incubation, the reaction was initiated by the addition of 50 μL of the 2×NRS to each well.
Immediately (within 1 min) the fluorescence was measured using a microplate reader (BIOTEK® Synergy Neo2). […] Data was exported and analyzed using Graph Pad Prism 7. […] The IC50 value was derived after the data was fitted on a 10-point curve using a four-parameter logistic regression model.

Data set [1] is described as follows: Metabolic stability assay in human liver microsomes (HLM). The data set is classed as in vitro ADME. The settings on record: NADPH, sampled 0-120 min; for HLM t1/2: 3 μM test compound; for half-life at 3 µM: pH 7.4, 3 μM test compound, read-out: HLM t1/2. The method, then: The LC-MS/MS analysis was performed using Agilent 1260 Infinity II HPLC, coupled with an Agilent G6460 triple quadrupole mass spectrometer (Agilent Technologies, USA). All the data were acquired employing Agilent 6460 Quantitative Analysis data processing software.
Reverse-phase HPLC separation for each compound was achieved either on an Agilent Porshell 120 EC-C8 column (2.1×50 mm, 2.7 μm), or on an Agilent Zorbax XDB C18 column (2.1×50 mm, 3.5 μm) with a mobile phase composed of methanol-water-formic acid or acetonitrile-water-formic acid (0.1%) at a flow rate of 0.5 mL/min (changes for some compounds). Each method was developed in the presence of an internal standard (ISTD) d5-7-ethoxy coumarin. The column temperature was maintained at 40° C. for most of the samples otherwise noted. The detection was operated in the Agilent JetStream electrospray positive ionization using multiple reaction monitoring mode (MRM).
Other MS conditions were as follows: dwell time 100 ms; gas flow 10 L/min; nebulizer pressure 45 psi; delta EMV 200 V; fragmentor voltage and collision energy for individual compounds vary.
Test compounds were dissolved in 100% DMSO or 100% MeOH to make 10 mM stock solutions. Verapamil (Sigma Aldrich) aided as a positive control and was dissolved in 100% DMSO to make 10 mM stock solutions. The 10 mM stock solution of test and control compounds were further diluted in potassium phosphate buffer (100 mM, pH 7.4) to 500 μM to ensure the organic solvent content was <0.2%. Human liver microsomes (HLMs) were purchased from Xenotech at 20 mg/mL. NADPH (Sigma Aldrich) 10 mM stocks were prepared in deionized water.
The HLM assay was prepared in a 1.5 mL Eppendorf tube with a final volume of 1100 μL for duplicate runs. Each reaction contained phosphate buffer (928.4 μL), liver microsomes (55 μL), and test compound resulting in a final concentration of 3 μM (6.6 μL of 500 μM). The reaction was initiated with 110 μL of 10 mM NADPH. Aliquots (100 μL) were removed in duplicate at 0, 15, 30, 60, 120 min (for prodrug compounds) and 0, 5, 10, 15, 30 min (verapamil, positive control compound) time intervals and quenched in cold […] of 100% methanol which contained internal standard (ISTD: d5-7-ethoxy coumarin 4 μM). Before centrifugation each of the aliquoted tubes were vortexed to make sure compounds were in the solution. The aliquots were centrifuged at 12,000 g for 5 min and the supernatant removed and placed in an LC-MS vial. Each time point was assessed using LC-MS and the area, based on the extracted ion, was integrated with respect to the ISTD. Positive controls were conducted at a final volume of 550 μL to give each time point in a single run. A no-NADPH negative control with test or control compound was performed in a single run (150 μL) at the longest time point. Controls were processed and analyzed like the test compounds. Each time point was run in duplicates followed by in-between blank washes to avoid the carryover and to equilibrate the column.
(Liver microsomes are vesicles of endoplasmic reticulum, rich in cytochrome P450 enzymes.)

For the next data set, the target named is CYP2D6 (Homo sapiens (Human), UniProt P10635). Description: biochemical. Type of data set: biochemical. The conditions noted are these: human recombinant CYP2D6, AMMC substrate; read-out: CYP450 IC50 2D6. The method, then: as §1, §2
Chain of CYP2D6 (P10635 whole entry): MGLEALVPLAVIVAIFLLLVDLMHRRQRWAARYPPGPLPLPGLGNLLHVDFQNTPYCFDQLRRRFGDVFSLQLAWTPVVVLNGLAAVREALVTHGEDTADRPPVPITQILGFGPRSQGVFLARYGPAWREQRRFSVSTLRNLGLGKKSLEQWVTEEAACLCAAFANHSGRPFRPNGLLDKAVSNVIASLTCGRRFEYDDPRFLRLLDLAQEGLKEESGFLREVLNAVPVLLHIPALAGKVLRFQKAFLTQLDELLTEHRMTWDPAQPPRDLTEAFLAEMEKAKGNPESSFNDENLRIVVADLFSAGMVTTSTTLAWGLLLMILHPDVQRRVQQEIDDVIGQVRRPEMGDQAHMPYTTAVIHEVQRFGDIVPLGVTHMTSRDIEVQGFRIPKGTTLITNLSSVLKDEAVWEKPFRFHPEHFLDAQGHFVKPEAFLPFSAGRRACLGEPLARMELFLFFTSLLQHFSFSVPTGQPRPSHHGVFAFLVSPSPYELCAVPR
Both enzymatic assays were conducted in a 96-well microtiter plate (Black, CORNING® COSTAR®) with a final volume of 100 μL. Preparation of the plate began with the addition of 74 μL of the E/S in the first well, and 50 μL to all subsequent wells (from 2-11). The test compounds (1 μL) were dissolved in the first well to give the first row a final volume of 75 μL. A 1:3 serial dilution of the test compound was conducted by removing 25 μL from the first well and diluting it with the second and so forth until the tenth row. Final concentrations yielded a range from 200 μM-0.01 μM. Well no. 11 contained no inhibitor, and well no. 12 contained no enzyme. Both were used as controls for background fluorescence. The plate was incubated for 30 min at 37° C. After incubation, the reaction was initiated by the addition of 50 μL of the 2×NRS to each well.
Immediately (within 1 min) the fluorescence was measured using a microplate reader (BIOTEK® Synergy Neo2). CYP2D6 was monitored at Ex/Em=410/460 nm, and CYP3A4 monitored at Ex/Em=410/538 nm in kinetic mode that scanned every 5 min for 60 mins. Data was exported and analyzed using Graph Pad Prism 7. […] The IC50 value was derived after the data was fitted on a 10-point curve using a four-parameter logistic regression model.

Chain of CYP3A4 (P08684 whole entry, canonical isoform): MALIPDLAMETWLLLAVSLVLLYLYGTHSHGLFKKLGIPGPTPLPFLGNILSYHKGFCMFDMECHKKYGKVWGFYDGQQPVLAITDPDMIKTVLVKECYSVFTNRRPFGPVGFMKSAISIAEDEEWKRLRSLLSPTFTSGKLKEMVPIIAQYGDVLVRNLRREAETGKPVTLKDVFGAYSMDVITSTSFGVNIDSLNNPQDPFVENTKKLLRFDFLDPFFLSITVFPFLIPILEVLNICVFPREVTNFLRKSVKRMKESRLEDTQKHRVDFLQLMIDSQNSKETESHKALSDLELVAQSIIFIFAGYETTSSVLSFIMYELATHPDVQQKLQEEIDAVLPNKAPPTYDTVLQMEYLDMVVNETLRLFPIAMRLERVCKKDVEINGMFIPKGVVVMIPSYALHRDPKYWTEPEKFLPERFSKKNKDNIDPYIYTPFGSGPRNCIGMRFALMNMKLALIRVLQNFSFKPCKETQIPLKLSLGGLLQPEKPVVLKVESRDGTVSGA

For `C[C@H](Cn1cnc2c(N)ncnc21)OCP(=O)(O)OCCCCCCCCCCCCCCCCCCCC(F)(F)F.N` [NP-PD-105, ammonium [(1R)-2-(6-aminopurin-9-yl)-1-methyl-ethoxy]methyl-(20,20,20-trifluoroicosoxy)phosphinate], the CC50 (commonly the concentration giving 50% cytotoxicity) in the data set on HEK293 cells worked out at 72.4 µM. Moreover, the IC50 at CYP3A4 and on CYP2D6 was greater than 20 µM in each case. The “HLM t1/2” value in data set [1] was greater than 2 h.
In turn, `C[C@H](Cn1cnc2c(N)ncnc21)OCP(=O)(O)OCCCCCCCCCCCCCCCCCC#CC(F)(F)F.N` [NP-PD-102, Ammonium [(1R)-2-(6-aminopurin-9-yl)-1-methyl-ethoxy]methyl-(20,20,20-trifluoroicos-18-ynoxy)phosphinate] gave a CC50 in the data set with HEK293 cells of 78.7 µM. Besides, the 50% inhibitory concentration (IC50) on CYP3A4 and at CYP2D6 was greater than 20 µM throughout. Moreover, the “HLM t1/2” value in data set [1] is greater than 2 h.
In the data set with HEK293 cells, `C#CCCCCCCCCCCCCCCCCOP(=O)(O)CO[C@H](C)Cn1cnc2c(N)ncnc21.N` [Compound B1-1-024, Ammonium octadec-17-yn-1-yl ((((R)-1-(6-amino-9H-purin-9-yl)propan-2-yl)oxy)methyl)phosphonate] returned a CC50 greater than 100 µM. The IC50 (commonly the concentration needed to halve the response being measured) on CYP3A4 was determined as 18.7 µM; on CYP2D6, 2.39 µM. In addition, the “HLM t1/2” value in data set [1] was greater than 2 h.
In turn, `C[C@H](Cn1cnc2c(N)ncnc21)OCP(=O)(O)OCCCOCCCCCCCCCCCCCC#CC(F)(F)F.N` [NP-PD-149, Ammonium [(1R)-2-(6-aminopurin-9-yl)-1-methyl-ethoxy]methyl-[3-(16,16,16-trifluorohexadec-14-ynoxy)propoxy]phosphinate] returned a CC50 with HEK293 cells greater than 100 µM. In addition, the values for the half-inhibitory concentration (IC50) on CYP3A4 and at CYP2D6 were 12 µM and greater than 20 µM, respectively. The “HLM t1/2” value in data set [1] is greater than 2 h.
On the same counts, the results for `C#CCCCCCCCCCCCCCCCCCCOP(=O)(O)CO[C@H](C)Cn1cnc2c(N)ncnc21.N` [Compound B1-1-065, Ammonium icos-19-yn-1-yl (R)-(((1-(6-amino-9H-purin-9-yl)propan-2-yl)oxy)methyl)phosphonate] are 99.5 µM, greater than 50 µM, 21.9 µM and greater than 2 h.
For `CCCCCCCCCCCCCCCCSCCCOP(=O)(O)CO[C@H](C)Cn1cnc2c(N)ncnc21` [MD-1-123, Ammonium 3-(hexadecylthio)propyl (R)-(((1-(6-amino-9H-purin-9-yl)propan-2-yl)oxy)methyl) phosphonate], the IC50 was found to be 58 µM on CYP3A4 and 110 µM at CYP2D6. Also, in data set [1], the half-life at 3 µM was 0.7 h.
Consider `C[C@H](Cn1cnc2c(N)ncnc21)OCP(=O)(O)OCCCSCCCCCCCCCCCSc1ccccc1.N` [MD-1-119, Ammonium 3-((11-(phenylthio)undecyl)thio)propyl (R)-(((1-(6-amino-9H-purin-9-yl)propan-2-yl)oxy)methyl)phosphonate], for which the IC50 on CYP3A4 is 11 µM; on CYP2D6, 36.3 µM. Also, the half-life at 3 µM in data set [1] was found to be 0.2 h.
Turning to `C[C@H](Cn1cnc2c(N)ncnc21)OCP(=O)(O)OCCCCCCCCCCCCCCCCCC[Si](C)(C)C.N` [NP-PD-051, Ammonium [(1R)-2-(6-aminopurin-9-yl)-1-methyl-ethoxy]methyl-(18-trimethylsilyloctadecoxy)phosphinate], the IC50 at CYP3A4 was found to be 51.4 µM; on CYP2D6 it was 16.4 µM. Further, in data set [1], the half-life at 3 µM was greater than 2 h.
In the data set on HEK293 cells, `C#CCCCCCCCCCCCCCCOCCCOP(=O)(O)CO[C@H](C)Cn1cnc2c(N)ncnc21.N` [MD-5-72, Ammonium 3-(hexadec-15-yn-1-yloxy)propyl (R)-(((1-(6-amino-9H-purin-9-yl)propan-2-yl)oxy)methyl)phosphonate] returned a half-maximal cytotoxic concentration (CC50) greater than 100 µM. The IC50 at CYP3A4 and on CYP2D6 was greater than 20 µM each time. In addition, the “HLM t1/2” value in data set [1] was greater than 2 h.
`C[C@H](Cn1cnc2c(N)ncnc21)OCP(=O)(O)OCCCOCCCCCCCCCCCCCCCC(F)(F)F.N` [NP-PD-158, Ammonium [(1R)-2-(6-aminopurin-9-yl)-1-methyl-ethoxy]methyl-[3-(16,16,16-trifluorohexadecoxy)propoxy]phosphinate]: the CC50 in the data set with HEK293 cells is greater than 100 µM. Further, the IC50 at CYP3A4 and at CYP2D6 was greater than 20 µM each time. Moreover, the “HLM t1/2” value in data set [1] was greater than 2 h.
`C[C@H](Cn1cnc2c(N)ncnc21)OCP(=O)(O)OCCCSCCCCCCCCCCCOc1ccccc1.N` [MD-1-223, Ammonium 3-((11-phenoxyundecyl)thio)propyl (R)-(((1-(6-amino-9H-purin-9-yl)propan-2-yl)oxy)methyl)phosphonate]: the IC50 at CYP3A4 and at CYP2D6 was greater than 20 µM each time. In addition, in data set [1], the half-life at 3 µM stood at 0.25 h.
In the case of `COC(=O)CCCCCCCCCCCCCCCSCCCOP(=O)(O)CO[C@H](C)Cn1cnc2c(N)ncnc21.N` [MD-1-124, Ammonium 3-((16-methoxy-16-oxohexadecyl)thio)propyl (R)-(((1-(6-amino-9H-purin-9-yl)propan-2-yl)oxy)methyl)phosphonate], the IC50 on CYP3A4 amounted to 40.8 µM; on CYP2D6 it was 19.2 µM. Moreover, the half-life at 3 µM in data set [1] is 0.6 h.
